PubChem BioAssay (NCI)
Where “and” joins values, the source holds several entries; their conditions need not be identical. Equal entries are not always repeated.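 Grown in 96-well plates, cells were treated for 48 hours with each compound at five concentrations. Insufficient inhibition: endpoint recorded as highest concentration tested. GI50 is the concentration that inhibits growth by half. TGI marks complete inhibition of growth.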

Key:
Assay in all cases: NCI anticancer screen, dose series, 48 h
[1] = tested on: SK-OV-3 ovarian
[2] = tested on: SN12C renal
[3] = tested on: SR leukemia
[4] = tested on: UO-31 renal
[5] = tested on: DU-145 prostate
[6] = tested on: MDA-MB-435
[7] = tested on: COLO 205 colon
[8] = tested on: SW-620 colon
[9] = tested on: 786-0 renal
[10] = tested on: TK-10 renal

SMILES | GI50 [1] | TGI [1] | GI50 [2] [µM] | TGI [2] | GI50 [3] | TGI [3] | GI50 [4] | TGI [4] | GI50 [5] [µM] | TGI [5] | GI50 [6] [µM] | TGI [6] | GI50 [7] | TGI [7] | GI50 [8] [µM] | TGI [8] | GI50 [9] | TGI [9] | GI50 [10] [µM] | TGI [10]
COc1ccc(C2=NN(C=O)C(c3cccc(Nc4ccnc5cc(Cl)ccc45)c3)C2)cc1 (configuration not stated) | 3.33 µM | 23.3 µM | 4.45 | > 100 µM | 0.583 µM | 5.23 µM | 3.25 µM | 64.6 µM | 3.62 | 89.3 µM | 0.37 | 13.1 µM | 2.4 µM | 9.88 µM | 1.73 | 13.2 µM | 3.43 µM | 17.6 µM | 4.24 | 20.2 µM
CCCOc1ccc2nc(NC(=O)OC)[nH]c2c1 | 0.262 µM | – | 0.597 | > 100 µM | 0.0319 µM | > 100 µM | 0.501 µM | > 100 µM | 0.466 | – | 0.0284 | 0.11 µM | 0.135 µM | 0.505 µM | 0.133 | > 100 µM | 0.47 µM | > 100 µM | > 25.5 | > 100 µM
COc1ccc(Cn2c3c(cc(OS(=O)(=O)C(F)(F)F)c2=O)Cc2ccccc2-3)cc1 | > 100 µM | 50 µM and > 100 µM | 5.91 | 50 µM and 47 µM | – | 50 µM and 20.1 µM | 9.37 µM | 50 µM and > 100 µM | 17.1 | 50 µM and > 100 µM | 29.4 | 50 µM and > 100 µM | 61.1 µM | 50 µM and > 100 µM | 5.29 | 50 µM and > 100 µM | 3.87 µM | 50 µM and > 100 µM | 19.5 | 50 µM and > 100 µM
CCC[n+]1cc2cc(OC)c(OC)cc2c2c1-c1cc3c(cc1C2)OCO3 | 25.6 µM | 52.3 µM | 0.638 | 6.84 µM | 2.18 µM | 26.2 µM | 13.1 µM | 35.1 µM | 7.82 | 38.6 µM | 3.29 | 12.4 µM | 1.61 µM | 8.52 µM | 2.83 | 23.7 µM | 1.11 µM | 12.3 µM | 22.6 | 58.9 µM
C/C=C1\NC(=O)[C@H]2CSSCCC=C[C@H](CC(=O)N[C@H](C(C)C)C(=O)N2)OC(=O)[C@H](C(C)C)NC1=O | < 0.01 µM and 0.000175 µM | < 0.01 µM and 0.00789 µM | < 0.01 | – | < 0.01 µM and 0.000119 µM | 0.221 µM and 0.0286 µM and 0.047 µM | 0.026 µM and 0.0145 µM | – | < 0.01 | 0.226 µM and 0.0645 µM and 0.199 µM | < 0.01 | < 0.0134 µM and 0.0207 µM and 0.125 µM | < 0.01 µM and 0.000172 µM | < 0.01 µM and 0.000811 µM | < 0.01 | < 0.01 µM and 0.0195 µM and < 0.0161 µM | < 0.01 µM and 0.000554 µM | – | < 0.01 | –
Fc1cc2[nH]ncc2c2c3c(c(-c4cn[nH]c4C(F)(F)F)nc12)C1CCC3C1 (configuration not stated) | 0.729 µM | 2.26 µM | 0.96 | 5.18 µM | 0.645 µM | > 50 µM | 0.767 µM | 1.97 µM | 1.12 | 7.52 µM | 1.52 | 7.14 µM | 0.874 µM | 2.24 µM | 0.982 | 5.13 µM | 1.19 µM | 5.27 µM | 0.744 | 4.08 µM
COc1cc2c(=O)n(CCN)c3c4cc5c(cc4ccc3c2cc1OC)OCO5 | 1.24 µM | 12 µM | 0.723 | 2.32 µM | 0.0907 µM | 1.03 µM | 0.605 µM | 2.1 µM | 0.488 | 1.83 µM | 0.894 | 2.29 µM | 0.352 µM | 2.11 µM | 0.23 | 2.07 µM | 0.464 µM | 1.97 µM | 1.62 | 3.28 µM
CCN(CC)C(=S)Oc1cc2oc(=O)cc(C)c2cc1Cl | – | – | – | > 100 µM | – | > 100 µM | – | > 100 µM | – | > 100 µM | – | > 100 µM | – | > 100 µM | – | > 100 µM | – | > 100 µM | – | > 100 µM
Cc1nc2sccn2c1-c1csc(Nc2cccc(Cl)c2C)n1 | 21.2 µM | > 100 µM | 6.06 | > 100 µM | 3.46 µM | 53.1 µM | 3.05 µM | 23.7 µM | 8.45 | 72 µM | 1.95 | 6.47 µM | 6.75 µM | 43.7 µM | 3.91 | 24.3 µM | 9.62 µM | 79.7 µM | – | –
COc1cc(C(=O)Nc2cc3c(cc2Oc2cc(C)cc(C)c2)C(=O)N(C)[C@@H](CC(=O)N(C)O)C(=O)N3)c(Br)c(OC)c1OC | < 0.00333 µM | 0.00955 µM | < 0.00333 | < 0.00333 µM | < 0.00333 µM | 0.00904 µM | 0.0255 µM | 0.413 µM | < 0.00333 | 0.00428 µM | < 0.00333 | 0.00351 µM | – | – | < 0.00333 | 0.0149 µM | 0.00824 µM | 0.0429 µM | 0.00526 | 0.0264 µM
Nc1ccc(C(=O)CC(N)C(=O)O)cc1O (configuration not stated) | – | > 100 µM | – | > 100 µM | – | > 100 µM | – | > 100 µM | – | > 100 µM | – | > 100 µM | – | > 100 µM | – | > 100 µM | – | > 100 µM | – | > 100 µM
OCCNc1ncnc2c1ncn2Cc1cccc(COc2cccc(OCc3cccc(Cn4cnc5c(NCCO)ncnc54)c3)c2)c1 | > 100 µM | > 100 µM | 17 | 34.5 µM | – | – | 23.1 µM | 56.6 µM | 16.7 | 32.5 µM | 14.9 | 35.7 µM | 13.5 µM | 32.2 µM | 11.8 | 24.9 µM | 15.5 µM | 30.3 µM | 14.7 | 29.9 µM
CC[PH+](CC)CC.O=COC1OC([S-])C(OC=O)C(OC=O)C1OC=O.[Au+] (configuration not stated) | 1.85 µM | 3.36 µM | 1.44 | 2.75 µM | – | – | 1.69 µM | 3.05 µM | 1.58 | 3.33 µM | 1.43 | 2.97 µM | 2.23 µM | 4.7 µM | 1.85 | 3.83 µM | 1.51 µM | 2.85 µM | 1.74 | 3.39 µM
CC1C(=O)OCC2=CCN3CCC(OC(=O)C(C)C1(C)O)C23 (configuration not stated) | – | > 100 µM | – | > 100 µM | – | – | – | > 100 µM | – | > 100 µM | – | > 100 µM | – | > 100 µM | – | > 100 µM | – | > 100 µM | – | > 100 µM
O=c1cccc(C2CC(CO)C3CCCCN3C2)[nH]1 (configuration not stated) | – | > 100 µM | – | > 100 µM | – | – | – | > 100 µM | – | > 100 µM | – | > 100 µM | – | > 100 µM | – | > 100 µM | – | > 100 µM | – | > 100 µM
